# Assay results published in ChEMBL document CHEMBL5728507, “Tricyclic heterocyclic derivatives and uses thereof” (2021).
# Target: Macrophage colony-stimulating factor 1 receptor (Homo sapiens, UniProt P07333)
# Assay: Biochemical Assay: IC50 values were determined using the Z′-LYTE® activity assay, with ATP concentration used at Km app for the specific assay (500 μM ATP for CSF-1R (FMS) and 75 μM ATP for KDR (VEGFR2)).The Z′-LYTE® biochemical assay employs a fluorescence-based, coupled-enzyme format and is based on the differential sensitivity of phosphorylated and non-phosphorylated peptides to proteolytic …
# Chain of Macrophage colony-stimulating factor 1 receptor (P07333 whole entry): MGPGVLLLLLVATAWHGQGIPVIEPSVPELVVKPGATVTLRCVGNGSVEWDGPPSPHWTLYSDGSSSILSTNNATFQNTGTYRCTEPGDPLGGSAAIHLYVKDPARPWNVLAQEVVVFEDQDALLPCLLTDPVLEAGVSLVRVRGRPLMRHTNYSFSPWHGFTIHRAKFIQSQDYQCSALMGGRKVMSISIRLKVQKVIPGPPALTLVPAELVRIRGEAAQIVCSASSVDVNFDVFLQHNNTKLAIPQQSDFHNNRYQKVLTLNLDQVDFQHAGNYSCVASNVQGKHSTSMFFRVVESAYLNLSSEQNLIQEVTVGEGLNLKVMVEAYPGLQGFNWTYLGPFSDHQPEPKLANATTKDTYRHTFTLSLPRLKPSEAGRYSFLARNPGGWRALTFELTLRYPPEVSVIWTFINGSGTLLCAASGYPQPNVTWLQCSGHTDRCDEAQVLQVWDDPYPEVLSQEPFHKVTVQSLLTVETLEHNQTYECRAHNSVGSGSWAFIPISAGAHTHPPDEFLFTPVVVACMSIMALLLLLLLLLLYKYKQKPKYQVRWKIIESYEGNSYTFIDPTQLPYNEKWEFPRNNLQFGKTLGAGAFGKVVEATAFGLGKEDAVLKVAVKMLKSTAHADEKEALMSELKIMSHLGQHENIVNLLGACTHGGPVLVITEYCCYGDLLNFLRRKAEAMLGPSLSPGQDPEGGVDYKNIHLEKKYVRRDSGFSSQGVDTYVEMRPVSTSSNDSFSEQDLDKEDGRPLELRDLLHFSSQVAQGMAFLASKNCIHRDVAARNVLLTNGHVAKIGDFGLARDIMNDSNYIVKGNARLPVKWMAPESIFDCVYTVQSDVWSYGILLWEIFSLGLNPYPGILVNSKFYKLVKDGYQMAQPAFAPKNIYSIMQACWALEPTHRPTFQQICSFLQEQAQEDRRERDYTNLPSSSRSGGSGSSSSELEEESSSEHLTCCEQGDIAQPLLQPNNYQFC
row,SMILES,IC50 [nM]
1,Cc1cc(OCCN(C)C)c2oc3cc(Oc4cccc(NC(=O)Nc5ccccc5)c4)ccc3c(=O)c2c1,< 100
2,Cc1cc(OCCCN(C)C)c2oc3cc(Oc4cccc(C(=O)Nc5ccccc5)c4)ccc3c(=O)c2c1,< 100
3,Cc1cc(OCCN(C)C)c2oc3cc(Oc4ccc(CCC(=O)N5CCCC5)nc4)ccc3c(=O)c2c1,< 100
4,Cc1cc(OCCN(C)C)c2oc3cc(Oc4cccc(C(=O)Nc5ccccc5)c4)ccc3c(=O)c2c1,< 100

# Second part, the molecule after the results:
row,IC50 [nM],SMILES
1,< 100,Cc1cc(OCCCN2C[C@@H](C)N[C@@H](C)C2)c2oc3cc(Oc4ccc(CCC(=O)NC5CCCC5)nc4)ccc3c(=O)c2c1
2,< 100,Cc1cc(OCCCN(C)C)c2oc3cc(Oc4cccc(NC(=O)Nc5ccccc5)c4)ccc3c(=O)c2c1
